Measured values reported in patent US11497713B2, “Combination taxoid nanoemulsion with immunotherapy in cancer” (TargaGenix, Inc., priority 2017, dated 2022).

How the values were obtained:
[1] = test system: human CFPAC-1 pancreatic tumor xenograft; experiment: Human CFPAC-1 pancreatic tumor xenograft efficacy (FIG. 2); format: in vivo, mice; conditions: 240 mg/kg or 300 mg/kg total dose
[2] = test system: drug-resistant colon tumor xenografts; experiment: Drug-resistant colon tumor xenografts; format: in vivo; conditions: all surviving mice
[3] = test system: colon and prostate cancer cell lines grown as spheroids; experiment: Spheroid assay with CD133high/CD44high colon and prostate cancer cells; format: cell-based; conditions: cells selected for CD133high/CD44high
Source text: The results from experiments using DHA-SBT-1214 in two human pancreatic tumor models (FIGS. 2 and 3) and a proof-of-concept in patient-derived CSC model are described below. The compelling aspects of DHA-SBT-1214 preclinical activity is its effects on CSCs. Highly plastic CSCs are an important new drug target in the treatment of refractory tumors. Through the development of drugs specifically targeting CSCs (or targeting CSCs in addition to tumor cells) a more durable clinical response may be possible. In addition to the previously described cytotoxicity assays in cell cultures, DHA-SBT-1214 was tested in colon and prostate cancer cell lines grown as spheroids from cells selected for being CD133^high/CD44^high, characteristic of stem cells. […] Perhaps more significant was the effect of exposure to relatively low concentrations of DHA-SBT-1214 (100 nM to 1 μM) for 24 hours on the expression of genes associated with “sternness” in several colon and prostate cancer cells lines grown as microspheres (6,7).

CC/C=C\C/C=C\C/C=C\C/C=C\C/C=C\C/C=C\CCC(=O)O[C@@H](C(=O)O[C@H]1C[C@@]2(O)[C@@H](OC(=O)c3ccccc3)[C@@H]3[C@]4(OC(C)=O)CO[C@@H]4C[C@H](O)[C@@]3(C)C(=O)[C@H](OC(=O)C3CC3)C(=C1C)C2(C)C)[C@H](C=C(C)C)NC(=O)OC(C)(C)C [DHA-SBT-1214, Docosahexaenoic acid conjugate of SBT-1214]
weight loss [1]: negligible
tumor growth delay [2]: > 167 days
tumor regression [2]: complete regression
number of spheroids [3]: greatly reduced
